Among the data in publication PMC3929971 (Chemistry (Weinheim an der Bergstrasse, Germany), 2013) are IC50 values, retold here.

The structures appear in SMILES notation.

In this test the target is T1, Mtb MraY (phospho-MurNAc-pentapeptide translocase, translocase I) (Mycobacterium tuberculosis, UniProt P9WMW7).
T1 sequence (P9WMW7 1-359): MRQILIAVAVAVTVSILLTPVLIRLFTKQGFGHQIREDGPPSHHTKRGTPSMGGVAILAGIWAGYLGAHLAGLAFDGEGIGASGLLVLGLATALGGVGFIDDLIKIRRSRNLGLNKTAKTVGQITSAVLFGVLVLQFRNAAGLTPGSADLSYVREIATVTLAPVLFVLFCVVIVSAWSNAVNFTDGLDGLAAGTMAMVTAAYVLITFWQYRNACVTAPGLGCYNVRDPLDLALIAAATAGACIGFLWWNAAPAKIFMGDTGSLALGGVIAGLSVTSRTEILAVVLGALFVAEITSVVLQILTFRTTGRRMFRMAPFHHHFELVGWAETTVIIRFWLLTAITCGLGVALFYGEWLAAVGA
Kind of test: MraY enzyme inhibition. The format is biochemical.

What is called IC50 is the concentration needed to halve the response being measured. On to `CO[C@H]1[C@@H](O)[C@H](n2ccc(=O)[nH]c2=O)O[C@@H]1[C@@H](O[C@H]1OC(C(=O)N[C@H]2CCCCNC2=O)=C[C@H](O)[C@@H]1O)C(N)=O` [compound 1, Capuramycin], for which the 50% inhibitory concentration (IC50) worked out at 18 nM.
